This is an account of results in EP4682143A1, “PHARMACEUTICAL COMPOSITION CONTAINING EGFR INHIBITOR, AND PREPARATION METHOD THEREFOR AND USE THEREOF” (Convalife Pharmaceuticals Co., Ltd., priority 2023, dated 2024).

Like-named read-outs stand apart in the source and are kept apart here.

Experiment [1] has as its system Ba/F3-EGFR-G719S cell line. The experiment can be described thus: CellTiter-Glo (CTG) cell proliferation assay (Example A). Type of experiment: cell-based. The note with it: 72 hours, highest test concentration 1 µM. The protocol:
Due to its high sensitivity and simple workflow, it is currently a widely used cell viability assay.
Cell viability was assessed by trypan blue exclusion to ensure viability above 90%. • c) Cells were adjusted to the desired density with complete growth medium and seeded into 96-well plates at 3,000 cells per well in 90 µL medium. • d) The seeded 96-well plates were incubated at 37°C under 5% CO2. • e) Ten-fold stock solutions of each compound were prepared, with the highest test concentration of 1 µM. Nine concentrations were generated by four-fold serial dilution. Subsequently, 10 µL of each diluted compound was transferred into the corresponding wells of the 96-well plates, with triplicate wells for each concentration. • f) The compound-treated 96-well plates were incubated for an additional 72 hours at 37°C under 5% CO2, followed by CTG analysis. • g) The CTG reagent was thawed and the cell plates were equilibrated to room temperature for 30 minutes. • h) An equal volume of CTG reagent was added to each well. • i) The plates were shaken on a plate shaker for 5 minutes to induce cell lysis. • j) Plates were incubated at room temperature for 20 minutes to stabilize the luminescent signal. • k) Luminescence was measured and data were collected.
Data were analyzed using GraphPad Prism 7.0 software. Nonlinear sigmoidal regression was applied to fit the dose-response curves, from which IC50 values were calculated.
Cell viability (%) was determined according to the following equation: Cell viability(%) = (Lumcompound−Lummedium control)/(Lumvehicle control−Lummedium control) × 100% [formula]

Experiment [2] relates to Cholangiocarcinoma PDX Model LD1-0060-200791. Put plainly: Cholangiocarcinoma PDX model in vitro antiproliferation assay (CTG). Format: cell-based. The note with it: for IC50: 144 h; for IC50 / Maximum Inhibition Rate (%) / Minimum Inhibition Rate (%): cultured 6 days, CTG; for Slope: slope of inhibition curve. The protocol:
Tumor tissues were surgically excised from the subcutaneous tumors of tumor-bearing mice and immersed in HBSS buffer. Non-tumor and necrotic tissues were removed in a biosafety cabinet, and the tissues were cut into small pieces of 1-3 mm^3. Tumor pieces were digested with collagenase at 37°C for 1-2 hours. Single-cell suspensions were collected through a mesh, and centrifuged at 1200 rpm for 3 minutes to remove the supernatant. […] High-concentration drug stocks were diluted 1000× with BIO-MPM-1 medium to prepare 20× intermediate concentrations. Each well of a 96-well plate received 7.5 µL of the corresponding 20× drug solution or BIO-MPM-1 containing 2% DMSO (final DMSO concentration 0.2%). Then 135 µL of cell suspension was added per well. Cells were cultured continuously for 6 days at 37°C. Afterwards, 50 µL of CTG reagent was added per well. After mixing, 80 µL of the solution was measured in a multifunctional microplate reader for ATP content. Signals from each well were recorded to generate inhibition curves and calculate parameters such as IC50.
Inhibition curves were plotted using Xlfit (IDBS) to determine parameters including maximum inhibition, minimum inhibition, absolute IC50, relative IC50, and slope.
Proliferation rate (fold increase) was calculated as: Proliferation rate = (Vday6Control−Vday6Blank)/(Vday0Control−Vday0Blank) [formula]

In the case of “(E)-N-(4-((3-chloro-4-(pyridin-2-ylmethoxy)phenyl)amino)-3-cyano-7-ethoxyquinolin-6-yl)-4-(3,3-difluoroazetidin-1-yl)but-2-enamide [Compound A0902]”, half-maximal inhibition in experiment [1] (IC50) required 2.53 nM.

Turning to `CNCc1ccc(-c2cc3cc(F)cc(C(N)=O)c3o2)cc1` [CVL218], in experiment [2] (read-out: Absolute IC50), the IC50 (as a rule, the point on the concentration scale where inhibition reaches its midpoint) was determined as 5770 nM. Moreover, the IC50 in experiment [2] (read-out: Relative IC50) worked out at 7080 nM. In experiment [2], the “Maximum Inhibition Rate (%)” value amounted to 110.0%, the “Minimum Inhibition Rate (%)” value amounted to 6.4% and the Slope is listed as 1.57.

`CCOc1cc2ncc(C#N)c(Nc3ccc(OCc4ccccn4)c(Cl)c3)c2cc1NC(=O)/C=C/CN1CC(F)(F)C1` [Compound A0903, (E)-N-(4-((3-chloro-4-(pyridin-2-ylmethoxy)phenyl)amino)-3-cyano-7-ethoxyquinolin-6-yl)-4-(3,3-difluoroazetidin-1-yl)but-2-enamide] registered a 50% inhibitory concentration (IC50) in experiment [1] of 2.06 nM.

Molecule `CCOc1cc2ncc(C#N)c(Nc3ccc(OCc4ccccn4)c(Cl)c3)c2cc1NC(=O)/C=C/CN1CC(N(C)C)C1` [Compound A0901, (E)-N-(4-((3-chloro-4-(pyridin-2-ylmethoxy)phenyl)amino)-3-cyano-7-ethoxyquinolin-6-yl)-4-(3-(dimethylamino)azetidin-1-yl)but-2-enamide] had an IC50 in experiment [1] of 16.8 nM.

As to `c1cc(-c2nc(N3CCOCC3)c3oc4ccc(CN5CC6CC5CO6)cc4c3n2)c2cc[nH]c2c1` (stereo not drawn) [CVL237], in experiment [2] (read-out: Absolute IC50), the IC50 was determined as 3480 nM. For the same molecule, the IC50 in experiment [2] (read-out: Relative IC50) is 3410 nM. Besides, in experiment [2], the “Maximum Inhibition Rate (%)” value was determined as 99.5%, the “Minimum Inhibition Rate (%)” value is -10.0% and the Slope was 9.51.

With `C=C(CN1CCC(N(C)C)CC1)C(=O)Nc1cc2c(Nc3ccc(OCc4ccccn4)c(Cl)c3)c(C#N)cnc2cc1OCC` [Compound A0906, N-(4-((3-chloro-4-(pyridin-2-ylmethoxy)phenyl)amino)-3-cyano-7-ethoxyquinolin-6-yl)-2-((4-(dimethylamino)piperidin-1-yl)methyl)propenamide], in experiment [1], the half-maximal inhibitory concentration (IC50) was 152 nM.

In the case of `CCOc1cc2ncc(C#N)c(Nc3ccc(OCc4ccccn4)c(Cl)c3)c2cc1NC(=O)/C=C/CN(C)C.O=C(O)/C=C\C(=O)O` [Compound A009, (E)-N-(4-(3-chloro-4-(pyridin-2-ylmethoxy)anilino)-3-cyano-7-ethoxyquinolin-6-yl)-4-(dimethylamino)but-2-enamide maleate, reference compound], the IC50 in experiment [2] (read-out: Absolute IC50) came out at 3310 nM. Also, in experiment [2] (read-out: Relative IC50), the concentration for half-maximal inhibition (IC50) stood at 3260 nM. Also, in experiment [2], the “Maximum Inhibition Rate (%)” value was 99.2%, the “Minimum Inhibition Rate (%)” value is -10.0% and the Slope was determined as 13.13.

`C=C(CN1CC(N(C)C)C1)C(=O)Nc1cc2c(Nc3ccc(OCc4ccccn4)c(Cl)c3)c(C#N)cnc2cc1OCC` [Compound A0905, N-(4-((3-chloro-4-(pyridin-2-ylmethoxy)phenyl)amino)-3-cyano-7-ethoxyquinolin-6-yl)-2-((3-(dimethylamino)azetidin-1-yl)methyl)propenamide] gave an IC50 in experiment [1] of 69.6 nM.

In experiment [1], “(E)-N-(4-((3-chloro-4-(pyridin-2-ylmethoxy)phenyl)amino)-3-cyano-7-ethoxyquinolin-6-yl)-4-(methanesulfonamido)but-2-enamide [Compound A0904]” had an IC50 of 2.18 nM.
